The values that follow come from patent US12629390B2, “Stabilized amorphous calcium carbonate for treatment of neurological, muscular and infertility diseases or conditions” (AMORPHICAL LTD., priority 2016, dated 2026).

The test system of test [1] is healthy skeletal muscle cultures. Nature of the test: myotube formation and contraction in healthy skeletal muscle cultures. The test is classed as cell-based, rat. The following applies: added at 1 mM (final Ca2+ 2 mM). As to the method:
Stationary skeletal muscle cultures were prepared from healthy 1 day new born rat (Sprague Dawley, Harlan, Israel). The muscle tissue was dissected from posterior legs and was thoroughly minced. Digestion was performed with Trypsin-EDTA while gentle trituration. After 30 min the supernatant, containing dissociated cells, was collected and a fresh Trypsin-EDTA was added. This procedure was repeated two more times. Then, all supernatants were pooled, centrifuged, and the cell pellet was re-suspended in Proliferation Medium. Cells were seeded in a Gelatin coated 12 wells culture plates, 1×10^5 cells/well containing 1 mL of Proliferation Medium. Two days later, the medium was changed to Fusion Medium, which was then changed twice a week. The cultures were monitored by daily phase contrast microscopic observations from 24 hours after setting the cultures and onward.
Stock solution of 1% porcine gelatin in water, was sterilized by autoclave. Once cooled, 500 μl of the solution were added to each well of the 12-wells culture plat. After incubation for 20 min at room temperature, the excess solution was removed, and the cells were seeded.
For the proliferation stage, cells were cultured in: DMEM/F12 (containing 1 mM Ca^2+) +10% FBS, 25 μg/mL Gentamycin, and 2 mM L-Glutamine.
For the fusion stage the Proliferation Medium was changed with Fusion Medium, which was prepared as following: DMEM/F12 (containing 1 mM Ca2+), 2% horse serum (HS), 2 mM L-Glutamine, 25 μg/mL Gentamycin, and 4 units/100 mL Insulin (all purchased from Biological-Industries, Israel).
Control cultures were grown without further added calcium, or cultures enriched with free (soluble) stabilizer. The experiment was blinded by marking the various calcium preparations with arbitrary numerals only.
The components were added in one of the following ways: (i) aqueous suspensions of dry material; (ii) aqueous suspension of fresh material (before drying), or (iii) dissolved with HCl (to mimic the acidity which exists in the stomach. After dissolving was accomplished, the formed solutions were neutralized with 1M NaOH).

Test [2] concerns spinal cord-dorsal root ganglia (SC-DRG) slices. In words: nerve fiber sprouting from SC-DRG co-cultures. The test is classed as cell-based, rat. The note with it: calcium preparation at Ca2+ 2 mM; after 4 days of cultivation; portion of explants (out of 6). The method, then: Neural and Vascular Reconstruction Gel ([…] Labs proprietary) is composed of two main components: high molecular hyaluronic acid (HA, 3×10^6 Da, BTG, Israel) and laminin (Sigma). […] The gel has the texture of a viscous liquid, it adheres easily and successfully the embedded cells or explants to the plastic or glass substratum, and enabled nerve fiber outgrowth in a 3D pattern. All the experiments were carried out and authorized by the local ethics committee recognized by the Israeli authorities for animal experimentation. Stationary organotypic cultures of dorsal root ganglia (DRG) and spinal cord (SC) as well as cultures of dissociated brain cells were prepared from rat fetuses (15 days of gestation, Lewis inbred, Harlan, Israel). Immediately after dissection, the isolated tissues were cut with a […] tissue chopper into small slices (of 400 μm thickness). In these studies, two tissue culture strategies were used. […] In the second method, the tissue slices were further dissociated with a trypsin-EDTA solution for 30 min, and washed with a culture medium. Subsequently, the dissociated cells were added to a suspension of chitosan powder or gastrolith powder (micro carriers, MCs) and incubated in suspension at 37° C. for 4 days. […] Calcium source were as following: ACC-Etidronic Acid (ACC-ET) (fresh suspension); ACC-Phosphoserine (ACC-PS) (fresh suspension); Gastrolith (dissolved with 0.1 M HCl and then neutralized with NaOH 1M); gastrolith powder; […] The cultures were monitored by daily phase contrast microscopic observations starting from 24 hours after setting the cultures onward. Suspensions of fresh ACC preparations consisted of particles forming a stable suspension. The gastrolith is a natural ACC isolated from crabs, and can be purchased only as a dry powder. In this form, its other characteristic components (such as calcium ions and proteins) are not available to the cells. In order to increase their bioavailability, the gastrolith powder was dissolved in 0.1 M HCl (which mimics the acidity which exists in the stomach) and then neutralized with 1M NaOH. […] The specimens were then incubated with rabbit anti-neurofilament antibodies (NF, Novus Biologicals, 1:500) to visualize the neurite outgrowth. […] Finally, the samples were rinsed again with wash buffer, and mounted with mounting medium (Immco Diagnostic, USA).

The next test deals with MBA-13 cells. Nature of the test: Alizarin red staining of MBA13 stem cells differentiating to osteoblasts. The note with it: 10 days in culture. The test is classed as cell-based. As to the method:
Two days following thawing, MBA-13 cells (received from Prof. Dov Zipori, Weizmann Institute of Science) were re-suspended in recombinant trypsin solution and seeded on a 96 wells plate, (Day “0”) in a concentration of 1×10^4 cells/well using MSC Nutristem® XF basal medium (Biological Industries, cat #05-200-1A) supplemented with Mesenchymal stem cells (MSC) supplement mix medium (Biological Industries cat #05-201-06) in a ratio of 50 ml:300 μl. […] Row G in the plate was treated with MSCgo medium (total 1.488 mM calcium). Row H of the plate was treated with MSC NutriStem® XF nutrient basal medium+supplement mix (total 1.488 mM calcium). On day 4, medium was exchanged with fresh preparations of ACC. […] Once the cells were fixated, two types of staining reagents were used to stain extracellular calcium or bone deposition in order to estimate osteoblasts functionality: (i) Alizarin red (Sigma A55333) and (ii) Alkaline Phosphatase (DAKO BCIP/NBT substrate system […]) as following: Alizarin red staining procedure-pH was adjusted to 4.2. Cells were washed twice with PBS and fixed with cold methanol for 5 minutes and then washed again with PBS. […] Following staining incubation, the samples were washed with water 2-3 times to remove unspecific staining.

As to `[Ca+2].[Cl-].[Cl-]` [CaCl2, calcium chloride], the “muscle fibers after 7 days” value in test [1] was “fewer, thinner and shorter muscle fibers”. Besides, the “early formation of many myotubes, time of cultivation” value in test [1] (dry powder suspended in water) was “later”. Further, the “Cultures with axonal regeneration (%)” value in test [2] was 50%. Besides, in the test with MBA-13 cells (additional 1 mM calcium in MSCgo rapid osteogenic medium, gelatin coating), the “Alizarin Red staining signal” value is reported as “weak signal”. Further, the “large calcium deposition plaques” value in the test on MBA-13 cells (additional 1 mM calcium) is “not observed”.
